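Grown in 96-well plates, cells were treated for 48 hours with each compound at five concentrations. Insufficient inhibition: endpoint recorded as highest concentration tested. Abbreviation: GI50, concentration required for 50% inhibition of growth. TGI is the concentration that stops growth completely.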
Assays:
Assay in all cases: NCI anticancer screen, dose series, 48 h
SNB-75 CNS = test system: SNB-75 CNS
MDA-MB-231 breast = test system: MDA-MB-231 breast
IGROV1 ovarian = test system: IGROV1 ovarian
A498 renal = test system: A498 renal
SN12C renal = test system: SN12C renal
SF-268 CNS = test system: SF-268 CNS
SF-295 CNS = test system: SF-295 CNS
A549 NSCLC = test system: A549 NSCLC

Compound | GI50 (SNB-75 CNS) | TGI (SNB-75 CNS) | GI50 (MDA-MB-231 breast) | TGI (MDA-MB-231 breast) | GI50 (IGROV1 ovarian) | TGI (IGROV1 ovarian) | GI50 (A498 renal) | TGI (A498 renal) | GI50 (SN12C renal) | TGI (SN12C renal) | GI50 (SF-268 CNS) | TGI (SF-268 CNS) | GI50 (SF-295 CNS) | TGI (SF-295 CNS) | GI50 (A549 NSCLC) | TGI (A549 NSCLC)
Cc1cc(I)cc(CN(C)CCCN2CCOCC2)c1O | 21 µM | 87.4 µM | 39.7 µM | > 100 µM | 20.7 µM | 72.6 µM | 19.1 µM | 48.6 µM | > 100 µM | > 100 µM | 38.3 µM | > 100 µM | 25.1 µM | 74.8 µM | 59.4 µM | > 100 µM
CCn1c(CO)nn(-c2cc(O[C@@H](C)C(F)(F)F)c(C(=O)Nc3c(F)cccc3Cl)cc2F)c1=O |  | > 100 µM | > 20.1 µM | > 100 µM | < 0.0113 µM | > 100 µM | 3.84 µM | > 100 µM | 0.081 µM | > 100 µM | 0.196 µM | > 100 µM | < 0.01 µM | > 100 µM | < 0.01 µM | > 100 µM
CC(C)CNC(=O)O |  | > 100 µM |  | > 100 µM |  | > 100 µM |  | > 100 µM |  | > 100 µM |  | > 100 µM |  | > 100 µM |  | > 100 µM
O=C(COc1ccc(/C=C2\CSc3ccccc3C2=O)cc1)Nc1nccs1 | 11.5 µM | 25.1 µM | 14.4 µM | 35 µM | 1.38 µM | 2.67 µM | 15.8 µM | 29.2 µM | 5.8 µM | 29.8 µM | 3.61 µM | 13.6 µM | 11.8 µM | 25.6 µM | 15.3 µM | 28.5 µM
C[C@]12CC[C@@H]3c4ccc(O)cc4CC[C@H]3[C@@H]1CC[C@@H]2NS(=O)(=O)c1cccc(F)c1 | 2.93 µM | 15 µM | 3.64 µM | 13.6 µM | 5.42 µM | 21.8 µM | 2.07 µM | 6.68 µM | 2.35 µM | 6.39 µM | 4.1 µM | 16 µM | 3.29 µM | 11.9 µM | 3.13 µM | 12.6 µM
COc1ccc2c(O)cc3c(c2c1)[C@H](CCl)CN3C(=O)c1cc2cc(NC(=O)CCN3CCOCC3)ccc2[se]1 | < 0.001 µM | 0.00156 µM | < 0.001 µM | 0.105 µM | < 0.001 µM | 1.36 µM | < 0.001 µM | < 0.001 µM | < 0.001 µM | 0.0334 µM | < 0.001 µM | 0.0946 µM | < 0.001 µM | < 0.001 µM |  | 
O=S1OC2(c3ccccc3-c3ccccc32)c2ccccc21 (centres undefined) |  | > 100 µM |  |  |  | > 100 µM |  | > 100 µM |  | > 100 µM |  |  |  | > 100 µM |  | > 100 µM
CCC(C)(C)c1ccc(OCCCCCCN2CCNCC2)cc1 | 1.46 µM | 3.51 µM | 1.44 µM | 3.11 µM | 2.63 µM | 7.29 µM | 6.82 µM | 24.5 µM | 3.48 µM | 13.5 µM | 3.78 µM | 14 µM | 1.87 µM | 3.6 µM | 3.77 µM | 13.7 µM
Nc1nc(SN=Nc2ccc(S(N)(=O)=O)cc2)c2[nH]cnc2n1 | 0.354 µM | > 21.7 µM | 0.722 µM | > 100 µM | 1.65 µM | > 100 µM | 1.35 µM | 7.47 µM | 0.698 µM | > 100 µM | 0.563 µM | > 100 µM | 0.363 µM | > 100 µM | 3.06 µM | > 100 µM
O=C(Nc1ccc(CO)cc1)c1coc2ccccc2c1=O | > 100 µM | > 100 µM | > 100 µM | > 100 µM | > 100 µM | > 100 µM |  |  | > 100 µM | > 100 µM | > 100 µM | > 100 µM | 65.6 µM | > 100 µM | > 100 µM | > 100 µM
COc1ccc(OC)c2c(/C=C/c3ccc(N(C)C)cc3)ccnc12 |  | > 10 µM |  | > 10 µM |  | > 10 µM |  | > 10 µM |  | > 10 µM |  | > 10 µM |  | > 10 µM |  | > 10 µM
O=C(Nc1ccc(-n2cc(-c3ccncc3)c(-c3ccc(Cl)c(O)c3)n2)cc1)Nc1ccc(Cl)c(C(F)(F)F)c1 | 0.363 µM | 2.14 µM | 1.66 µM | 3.31 µM | 2.29 µM | 4.96 µM | 1.63 µM | 9.29 µM | 1.59 µM | 3.86 µM | 1.65 µM | 3.87 µM | 1.26 µM | 2.86 µM | 2.21 µM | 5.96 µM
Cc1cc(S(=O)(=O)N/N=C(\Sc2cc(Cl)c(C)cc2S(N)(=O)=O)c2ccc(Cl)cc2)c(Cl)cc1Cl |  |  | 34.2 µM | > 100 µM | 70.2 µM | > 100 µM | 57.1 µM | > 100 µM | 97.2 µM | > 100 µM | > 100 µM | > 100 µM | > 100 µM | > 100 µM | 36.6 µM | > 100 µM
COc1ccc(-c2oc3cc(O)c(OC)c(O)c3c(=O)c2OC)cc1O |  |  |  |  |  |  | 0.21 µM | 0.801 µM | 0.212 µM | > 100 µM | 0.0754 µM | > 100 µM | 0.3 µM | 2.04 µM | 1.07 µM | > 100 µM
C=CCSS/C=C/CS(=O)CC=C (centres undefined) |  | > 100 µM |  | 56.3 µM |  | > 100 µM |  | > 100 µM |  | > 65.9 µM |  | 60.7 µM |  | > 100 µM |  | > 100 µM
COc1ccc(-c2ccc(/C=N/n3c(C)n[nH]c3=S)o2)c([N+](=O)[O-])c1 |  |  |  |  | > 100 µM | > 100 µM | > 100 µM | > 100 µM | > 100 µM | > 100 µM | 47.5 µM | > 100 µM | 36.3 µM | > 100 µM | > 100 µM | > 100 µM
O=C(CSC(c1ccccc1)c1ccccc1)N/N=C/c1ccc(Cl)cc1Cl |  |  | 22.5 µM | > 100 µM | 19.9 µM | 53.5 µM | 25.6 µM | 52.1 µM | 15.7 µM | 29.9 µM | 36.8 µM | > 100 µM | 33.6 µM | 90.8 µM | 20.5 µM | 51.1 µM
